pIC50: −log10 of the molar value. In brackets after ≈: the same amount, converted by molar mass. Entries after “also recorded” stand apart in the source; their conditions may differ.
Tests used:
[1] = system: Staphylococcus aureus, Acinetobacter baumannii, Candida albicans and Cryptococcus neoformans var. grubii; experiment: Initial antimicrobial screen (CO-ADD); format: cell-based; conditions: 10 μM; Active / Inactive
Source text: We then screened this series of 1,2,3-dithiazoles and 1,2,3-thiaselenazoles (8−15) against Staphylococcus aureus, Acinetobacter baumannii, Candida albicans and Cryptococcus neoformans var. grubii (Table 1) as part of the Community for Antimicrobial Drug Discovery (CO-ADD) initiative to develop new lead compounds [51]. These represent three distinct classes of microbes. Staphylococcus aureus (ATCC 43300) is a gram-positive bacterium derived from the super bug methicillin-resistant Staphylococcus aureus (MRSA). Acinetobacter baumannii (ATCC 19606) is a gram-negative bacterium hospital-derived infection with very few antibiotics that can treat this pathogen. Candida albicans (ATCC 90028) and Cryptococcus neoformans var. grubii (ATCC 208821) are both opportunistic fungi. These fungal pathogens are particularly dangerous for patients in hospital with immunodeficiencies, undergoing cancer chemotherapy and organ transplantation. These strains are considered by the World Health Organization (WHO) to be the highest priority to develop novel antibiotics for control of these bacteria and fungi. These are some of the most difficult to treat, particularly in a hospital setting where sepsis and pneumonia can quickly overcome the body’s immune system.
The 1,2,3-thiaselenazole analog (13) was potent on against three of the four pathogens with a similar profile to 9a without the activity on A. baumannii.
Antimicrobial screening was performed by CO-ADD (The Community for Antimicrobial Drug Discovery), Australia.
(§1) All bacteria, S. aureus (Strain ATCC 43300, MRSA), E. coli (Strain ATCC 25922, FDA control strain), K. pneumoniae (Strain ATCC 700603, MDR), A. baumannii (Strain ATCC 19606, Type strain), P. aeruginosa (Strain ATCC 27853, Quality control strain), were cultured in Cation-adjusted Mueller Hinton broth (CAMHB) at 37 °C overnight. A sample of each culture was then diluted 40-fold in fresh broth and incubated at 37 °C for 1.5–3 h. The resultant mid-log phase cultures were diluted (CFU/mL measured by OD600), then added to each well of the compound containing plates, giving a cell density of 5 × 10^5 CFU/mL and a total volume of 50 μL. All the plates were covered and incubated at 37 °C for 18 h without shaking.
(§2) Analysis: Inhibition of bacterial growth was determined measuring absorbance at 600 nm (OD600), using a Tecan M1000 Pro monochromator plate reader. The percentage of growth inhibition was calculated for each well, using the negative control (media only) and positive control (bacteria without inhibitors) on the same plate as references. […]
Fungi strains C. albicans (Strain ATCC 90028, CLSI reference) and C. neoformans (Strain ATCC 208821, H99 Type strain), were cultured for 3 days on Yeast Extract-Peptone Dextrose (YPD) agar at 30 °C. A yeast suspension of 1 × 10^6 to 5 × 10^6 CFU/mL (as determined by OD530) was prepared from five colonies. The suspension was subsequently diluted and added to each well of the compound-containing plates giving a final cell density of fungi suspension of 2.5 × 10^3 CFU/mL and a total volume of 50 μL. All plates were covered and incubated at 35 °C for 36 h without shaking. […]

[2] = system: A. baumannii (Strain ATCC 19606, Type strain); experiment: Antibacterial assay, MIC; format: cell-based, Acinetobacter baumannii; conditions: for MIC: Acinetobacter baumannii, ATCC19606
Procedure: as §1, §2

[3] = system: C. albicans (Strain ATCC 90028, CLSI reference); experiment: Antifungal assay, MIC; format: cell-based, Candida albicans; conditions: for MIC: Candida albicans, ATCC90028
Procedure: (§3) Fungi strains C. albicans (Strain ATCC 90028, CLSI reference) and C. neoformans (Strain ATCC 208821, H99 Type strain), were cultured for 3 days on Yeast Extract-Peptone Dextrose (YPD) agar at 30 °C. A yeast suspension of 1 × 10^6 to 5 × 10^6 CFU/mL (as determined by OD530) was prepared from five colonies. The suspension was subsequently diluted and added to each well of the compound-containing plates giving a final cell density of fungi suspension of 2.5 × 10^3 CFU/mL and a total volume of 50 μL. All plates were covered and incubated at 35 °C for 36 h without shaking.
(§4) Analysis: Growth inhibition of C. albicans was determined measuring absorbance at 630 nm (OD630), while the growth inhibition of C. neoformans was determined measuring the difference in absorbance between 600 and 570 nm (OD600–570), after the addition of resazurin (0.001% final concentration) and incubation at 35 °C for 2 h. The absorbance was measured using a Biotek Multiflo Synergy HTX plate reader. In both cases, the percentage of growth inhibition was calculated for each well, using the negative control (media only) and positive control (fungi without inhibitors) on the same plate. […] Due to a higher variance in growth and inhibition, a lower threshold was applied to the data for C. neoformans.

[4] = system: C. neoformans (Strain ATCC 208821, H99 Type strain); experiment: Antifungal assay, MIC; format: cell-based, Cryptococcus neoformans var. grubii; conditions: for MIC: Cryptococcus neoformans, ATCC208821
Procedure: as §3, §4

[5] = system: S. aureus (Strain ATCC 43300, MRSA); experiment: Antibacterial assay, MIC; format: cell-based, Staphylococcus aureus; conditions: for MIC: Staphylococcus aureus
Procedure: as §1, §2

[6] = Cytotoxicity assay (resazurin); format: cell-based; conditions: human; HEK293 cells, 20 h; unit not given in Table 1; read-out: CC50 (concentration at 50% cytotoxicity)
Procedure: (§5) HEK293 cells were counted manually in a Neubauer haemocytometer and then plated in the 384-well plates containing the compounds to give a density of 6000 cells/well in a final volume of 50 μL. DMEM supplemented with 10% FBS was used as growth media and the cells were incubated together with the compounds for 20 h at 37 °C in 5% CO2. Analysis: Cytotoxicity (or cell viability) was measured by fluorescence, ex: 560/10 nm, em: 590/10 nm (F560/590), after addition of 5 μL of 25 μgmL^−1 Resazurin (2.3 μgmL^−1 final concentration) and after incubation for further 3h at 37 °C in 5% CO2. The fluorescence intensity was measured using a Tecan M1000 Pro monochromator plate reader, using automatic gain calculation CC50 (concentration at 50% cytotoxicity) were calculated by curve fitting the inhibition values vs. log(concentration) using sigmoidal dose-response function, with variable fitting values for bottom, top and slope.

haemolytic activity = experiment: Haemolysis assay; format: cell-based; conditions: for Hc10 (concentration at 10% haemolytic activity): unit not given
Procedure: Hc10 (concentration at 10% haemolytic activity) was calculated by curve fitting the inhibition values vs. log(concentration) using a Sigmoidal dose-response function, with variable values for bottom, top and slope. The curve fitting is implemented using Pipeline Pilot’s dose-response component (giving similar results to similar tools such as GraphPad’s Prism and IDBS’s XlFit). […] DMax represents the highest percentage inhibition response for all concentrations tested. […] In addition, the value indicates if samples have been active, but curve fitting failed, mostly because only the single highest concentration was active.

HEK293 cells = experiment: Cytotoxicity assay (resazurin); format: cell-based
Procedure: as §5

K562 = system: K562; design: method as in PMID 19036587, PMID 23010140, PMID 28709952; conditions: cited from earlier work
L1210 = system: L1210; design: method as in PMID 19036587, PMID 23010140, PMID 28709952; conditions: cited from earlier work
[7] = ATCC 19606, MIC = lowest concentration with inhibition ≥80%
[8] = ATCC 208821, inhibition ≥70% (method)
[9] = ATCC 43300 (MRSA), MIC = lowest concentration with inhibition ≥80%

Compound | Initial Screen [1] | melting point | MIC [2, 7] | MIC ([3]; ATCC 90028, inhibition ≥80%) | MIC [4, 8] | MIC [5, 9] | CC50 at 20 h [6] | Hc10 (concentration at 10% haemolytic activity) (haemolytic activity) | Activity against C. albicans (in words) [3] | also measured
c1ccc2c(c1)N=C1SSN=C1O2 [Compound 14, Benzo[b][1,2,3]dithiazolo[5,4-e][1,4]oxazine] | not fruitful; also recorded: Inactive | 182 to 184 °C |  |  |  |  |  |  |  | 
8-Phenylindeno[1,2-d][1,2,3]thiaselenazole [Compound 9b] | Inactive |  |  |  |  |  |  |  |  | 
CCOC(=O)c1c2n[se]sc-2c(Cl)c1Cl [Compound 11c, Ethyl 5,6-dichlorocyclopenta[d][1,2,3]thiaselenazole-4-carboxylate] |  | 188 to 190 °C | > 32 µg/mL | ≤ 0.25 µg/mL | ≤ 0.25 µg/mL | ≤ 0.25 µg/mL | 7 µg/mL (≈ 21.3 µM) | >32 |  | Haemolysis (in words) (haemolytic activity): no haemolysis
Clc1c2n[se]sc-2c(Cl)c1Cl [Compound 11a, 4,5,6-Trichlorocyclopenta[d][1,2,3]thiaselenazole] |  | 117 to 119 °C | ≤ 0.25 µg/mL | ≤ 0.25 µg/mL | ≤ 0.25 µg/mL | ≤ 0.25 µg/mL | 0.52 µg/mL (≈ 1.78 µM) | >32 | very potent | Activity against A. baumannii (in words) [2]: very potent; Activity against C. neoformans (in words) [4]: very potent; Activity against S. aureus (in words) [5]: very potent; Haemolysis (in words) (haemolytic activity): no haemolysis
c1ccc(-c2c3ssnc-3c3ccccc23)cc1 [Compound 8a] | Inactive |  |  |  |  |  |  |  | antifungal selective | Activity against C. neoformans (in words) [4]: antifungal selective; Toxicity (in words) (HEK293 cells): no toxicity or haemolysis; Haemolysis (in words) (haemolytic activity): no toxicity or haemolysis
ClC1=C2S[Se]N=C2c2ccccc2C(Cl)=C1Cl [Compound 13, 4,5,6-Trichlorobenzo[6,7]cyclohepta[1,2-d][1,2,3]thiaselenazole] |  | 144 to 145 °C | > 32 µg/mL | ≤ 0.25 µg/mL | ≤ 0.25 µg/mL | ≤ 0.25 µg/mL | 0.48 µg/mL (≈ 1.31 µM) | >32 |  | 
8-Chloroindeno[1,2-d][1,2,3]thiaselenazole [Compound 9a] |  |  |  |  |  |  |  | >32 |  | Antibacterial A. baumannii MIC [2, 7]: >32 µg/mL; Antifungal C. albicans MIC ([3]; ATCC 90028, inhibition ≥80%): ≤0.25 µg/mL; Antifungal C. neoformans MIC [4, 8]: ≤0.25 µg/mL; Antibacterial S. aureus MIC [5, 9]: >32 µg/mL; CC50 (concentration at 50% cytotoxicity) (HEK293 cells; 20 h, unit not given in Table 1): >32 µM
N#Cc1cnn(CCc2ccccc2)c1/N=c1/ssnc1Cl [Compound 1] |  |  |  |  |  |  |  |  |  | pIC50 (K562): 5.52; pIC50 (L1210): 5.30
ClC1=C2SSN=C2c2ccccc2C(Cl)=C1Cl [Compound 12, 4,5,6-Trichlorobenzo[6,7]cyclohepta[1,2-d][1,2,3]dithiazole] | Inactive | 119 to 121 °C |  |  |  |  |  |  |  | 
N#Cc1c2n[se]sc-2c(Cl)c1Cl [Compound 11b, 5,6-Dichlorocyclopenta[d][1,2,3]thiaselenazole-4-carbonitrile] |  | 171 to 173 °C | > 32 µg/mL | ≤ 0.25 µg/mL | ≤ 0.25 µg/mL | ≤ 0.25 µg/mL | > 32 µg/mL | >32 |  | Activity against S. aureus (in words) [5]: potent
c1ccc2c(c1)N=C1S[Se]N=C1O2 [Compound 15, Benzo[b][1,2,3]thiaselenazolo[5,4-e][1,4]oxazine] |  | 178 to 180 °C | > 32 µg/mL | ≤ 0.25 µg/mL | 2 µg/mL | > 32 µg/mL | > 32 µg/mL | >32 | recovered some antifungal activity | Activity against C. neoformans (in words) [4]: recovered some antifungal activity; Toxicity (in words) (HEK293 cells): no toxicity
Clc1c2nssc-2c(Cl)c1Cl [Compound 10a, 4,5,6-Trichlorocyclopenta[d][1,2,3]dithiazole] | Inactive | 122 to 124 °C |  |  |  |  |  |  |  | 
CCOC(=O)c1c2nssc-2c(Cl)c1Cl [Compound 10c, Ethyl 5,6-dichlorocyclopenta[d][1,2,3]dithiazole-4-carboxylate] |  | 80 to 82 °C | > 32 µg/mL | ≤ 0.25 µg/mL | > 32 µg/mL | > 32 µg/mL | > 32 µg/mL | >32 | selective for C. albicans | Toxicity (in words) (HEK293 cells): no toxicity
N#Cc1c2nssc-2c(Cl)c1Cl [Compound 10b, 5,6-Dichlorocyclopenta[1,2,3]dithiazole-4-carbonitrile] |  | 217 to 219 °C | > 32 µg/mL | ≤ 0.25 µg/mL | ≤ 0.25 µg/mL | > 32 µg/mL | > 32 µg/mL | >32 | maintained activity | Activity against A. baumannii (in words) [2]: removed all activity; Activity against C. neoformans (in words) [4]: maintained activity; Activity against S. aureus (in words) [5]: removed all activity; Toxicity (in words) (HEK293 cells): no toxicity

Source: article PMC7400446, “Antimicrobial and Antifungal Activity of Rare Substituted 1,2,3-Thiaselenazoles and Corresponding Matched Pair 1,2,3-Dithiazoles” (Antibiotics, 2020)
